In ChEMBL document CHEMBL1124762, “Potential antitumor agents. 60. Relationships between structure and in vivo colon 38 activity for 5-substituted 9-oxoxanthene-4-acetic acids” (1990):

Legend:
Format in all cases: functional, Mus musculus
MC-38 [1] = assay: Optimal dose 24 hr after intraperitoneal administration against C38 colon tumor cells in mice.
MC-38 [2] = assay: Percent necrosis activity against subcutaneous C38 colon tumor cells in vivo; range is 50-90%
MC-38 [3] = assay: Percent necrosis activity against subcutaneous C38 colon tumor cells in vivo; set-up: concentration or dose not given beside the values

Compound | OD (MC-38 [1]) | Activity (MC-38 [2]) | Activity (MC-38 [3])
CC(=O)Nc1cccc2c(=O)c3cccc(CC(=O)O)c3oc12 | 330 mg/kg | – | –
O=C(O)Cc1cccc2c(=O)c3cccc(C(F)(F)F)c3oc12 | 220 mg/kg | 90% | –
CCCCOc1cccc2c(=O)c3cccc(CC(=O)O)c3oc12 | 220 mg/kg | 90% | –
O=C(O)Cc1cccc2c(=O)c3cccc(-c4ccccc4)c3oc12 | 750 mg/kg | – | –
O=C(O)Cc1cccc2c(=O)c3cccc(O)c3oc12 | 330 mg/kg | – | –
O=C(O)Cc1cccc2c(=O)c3cccc(F)c3oc12 | 330 mg/kg | – | –
O=C(O)Cc1cccc2c(=O)c3cccc([N+](=O)[O-])c3oc12 | 330 mg/kg | 90% | –
O=C(O)Cc1cccc2c(=O)c3cccc(CC(=O)O)c3oc12 | 330 mg/kg | – | –
O=C(O)Cc1cccc2c(=O)c3ccccc3oc12 | 220 mg/kg | – | >90%
O=C(O)Cc1cccc2c(=O)c3cccc(Cl)c3oc12 | 150 mg/kg | – | >90%
Nc1cccc2c(=O)c3cccc(CC(=O)O)c3oc12 | 1125 mg/kg | 90% | –
COc1cccc2c(=O)c3cccc(CC(=O)O)c3oc12 | 150 mg/kg | 90% | –
CCCOc1cccc2c(=O)c3cccc(CC(=O)O)c3oc12 | 150 mg/kg | 90% | –
CCc1cccc2c(=O)c3cccc(CC(=O)O)c3oc12 | 100 mg/kg | – | >90%
CCOc1cccc2c(=O)c3cccc(CC(=O)O)c3oc12 | 330 mg/kg | – | >90%
O=C(O)Cc1cccc2c(=O)c3cccc(Br)c3oc12 | 100 mg/kg | – | –
O=C(O)Cc1cccc2c(=O)c3cccnc3oc12 | 750 mg/kg | – | –
Cc1cccc2c(=O)c3cccc(CC(=O)O)c3oc12 | 45 mg/kg | – | >90%
